According to publication PMC11520585 (BMC Neuroscience, 2024):

Key:
[1] = molecular target: GluN1/GluN2B subtype receptors; details: read-out: mean IC50, GluN1/GluN2B; cited from earlier work
µ-opioid receptors (MOR) = details: read-out: Ki, µ-opioid receptors (MOR); competitive radioligand binding; cited from earlier work
Opioid receptors (KOR) = details: read-out: Ki, Opioid receptors (KOR); competitive radioligand binding; cited from earlier work
C. elegans [2] = format: in vivo; details: ZA-II-05 1 mg/ml treated groups, 24 h
[3] = molecular target: GluN1/GluN2A subtype receptors; details: read-out: mean IC50, GluN1/GluN2A; cited from earlier work
[4] = test system: organotypic hippocampal slice cultures; assay: organotypic hippocampal slice culture neuroprotection assay; format: cell-based, rat; details: ZA-II-05 100 µM, NMDA 10 µM insult, P < 0.05
[5] = test system: vanadium-induced neurotoxicity; details: vanadium-exposed mice; cited from earlier work
C. elegans [6] = format: in vivo; details: ZA-II-05 1 mg/ml treated groups, 24 h; remark: listed apart in the source
Sigma2 receptor = details: read-out: Ki, Sigma2 receptor; competitive radioligand binding; cited from earlier work
[7] = test system: maximal electroshock seizures; details: 100 and 300 mg/kg (i.p.); cited from earlier work
C. elegans [8] = details: in vivo
C. elegans [9] = details: in vivo; remark: listed apart in the source

## Fc1ccc(C2(NCCCOC3CCCCO3)CC3CCC2C3)cc1 (stereo not drawn) [ZA-II-05, 2-[4-Fluorophenyl]-N-(3-[tetrahydro-2H-pyran-2-yloxy]propyl) bicyclo [2.2.1] heptan-2-amine]
[1]
  IC50: 430 nM
µ-opioid receptors (MOR)
  Ki: 3040 nM
Opioid receptors (KOR)
  Ki: 361 nM
C. elegans [2]
  nuclei in ventral nerve cord (DAPI): preserved the nucleus
[3]
  IC50: 518 nM
[4]
  neuroprotection (propidium iodide fluorescence intensity vs NMDA group): significant neuroprotective effect
[5]
  protection against neuronal damage: considerable protection against neuronal damage
C. elegans [6]
  mitochondrial density (fluorescence intensity): dense presence of mitochondria
Sigma2 receptor
  Ki: 5.5 nM
[7]
  activity in maximal electroshock seizure (MES) assessment: activity
C. elegans [8]
  growth pattern (body length, body wall): reversed this effect
C. elegans [9]
  mitochondrial superoxide (MitoSOX fluorescence), effect on vanadium-induced ROS: alleviated
